# Assay results taken from patent US4593090A, “Novel nitrosourea compounds, method for preparing same, and pharmaceutical composition containing same” (Gogo Kimura, priority 1981, dated 1986).
# Like-named read-outs stand apart in the source and are kept apart here.
# Experiments:
# [1] = Acute toxicity (LD50, Behrens-Karber method); assay type: in vivo, ICR mice; conditions: ip, mortality during 30 days; for LD50 at 720 h: mouse, in vivo; for LD50: 43200 min
# Protocol: Test compounds, dissolved or suspended in 0.5% aqueous CMC, were each intraperitoneally administered to ICR mice in a dose of 0.1 ml per 10 g body weight. LD50 (mg/kg) value of each test compound was calculated from the mortality of mice during 30 days by the Behrens-Karber method.
# Leukemia L1210 = assay: Activity against Leukemia L1210, intraperitoneal, increase in life span of mice; assay type: in vivo, female mice (BDF1 family); conditions: for ED (maximum ILS) / ED30: Mus musculus, L1210, ip; for ED (maximum ILS) / ED30 / O.D. (optimum dosage) / ILS30: ip once a day for 5 successive days; for ED (maximum ILS) / O.D. (optimum dosage): daily dosage giving maximum increase of life span; for ED (maximum ILS): read-out: O.D. (optimum dosage); for ED30 / ILS30: daily dosage increasing average survival days by 30%; for ED30: read-out: ILS30; for Survivors after 60 days / Max. ILS % / Therapeutic ratio TR: ip; for Survivors after 60 days: 6-membered group; for Max. ILS %: 60-day observation, versus control; for Therapeutic ratio TR: O.D./ILS30
# Procedure, shortened: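 Mice (female BDF1, 20–23 g) carrying 1×10^5 ip-implanted L1210 cells were given daily ip or oral doses for 5 days; ILS% came from mean survival over 60 days relative to controls.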
# Ehrlich acites carcinoma = assay: Growth-inhibiting effect against Ehrlich acites carcinoma; assay type: in vivo, male mice; conditions: Mus musculus, Ehrlich, 120 h, 5 days; for response vs control in vivo at 50 mg/kg: 50 mg/kg/day ip; for response vs control in vivo at 200 mg/kg: 200 mg/kg/day ip; for response vs control in vivo at 25 mg/kg: 25 mg/kg/day ip; for response vs control in vivo at 100 mg/kg: 100 mg/kg/day ip
# Protocol: Ehrlich acites carcinoma (1×10^7 cells) was implantated into the abdominal cavities of a 6-membered group of male mice. Test compounds (solutions or suspensions in 1% Nikohl HCO-60) were each intraperioneally administered once a day 5 successive days to the mice 24 hrs. after the implantation. Total packed cell volumes [TPCV, namely, total packed volumes of Acites carcinoma] were determined 7 days after the implantation to calculate growth ratio of tumor [T/C%; T: packed volume of Acites carcinoma in treated groups, C: packed volume of Acites carcinoma in an untreated group]. Acitivity is represented by - when T/C% is 100-66, by + when T/C% 65-41, by ++ when T/C% 40-11, and by +++ when T/C% 10-0.
SMILES,LD50 at 720 h [1],ED (maximum ILS) (Leukemia L1210),ED30 (Leukemia L1210),Survivors after 60 days (Leukemia L1210),Max. ILS % (Leukemia L1210),Therapeutic ratio TR (Leukemia L1210),response vs control in vivo at 50 mg/kg (Ehrlich acites carcinoma; read-out: Activity),response vs control in vivo at 50 mg/kg (Ehrlich acites carcinoma; read-out: T/C %),response vs control in vivo at 200 mg/kg (Ehrlich acites carcinoma; read-out: Activity),response vs control in vivo at 200 mg/kg (Ehrlich acites carcinoma; read-out: T/C %),response vs control in vivo at 25 mg/kg (Ehrlich acites carcinoma; read-out: Activity),response vs control in vivo at 25 mg/kg (Ehrlich acites carcinoma; read-out: T/C %),response vs control in vivo at 100 mg/kg (Ehrlich acites carcinoma; read-out: Activity),response vs control in vivo at 100 mg/kg (Ehrlich acites carcinoma; read-out: T/C %),LD50 [1],O.D. (optimum dosage) (Leukemia L1210),ILS30 (Leukemia L1210)
"CCCCO[C@H]1O[C@H](CN(C)C(=O)N(CCCl)N=O)[C@@H](O)[C@H](O)[C@H]1O [Compound 3, 3-methyl-3-(n-butylα-D-glucopyranose-6-yl)-1-(2-chloroethyl)-1-nitrosourea]",260 mg/kg,90 mg/kg,2.7 mg/kg,6/6,> 700%,33.3,11 to 40%,22.4%,0 to 10%,0%,,,,,,,
"CCCCO[C@H]1O[C@H](CN(CCOCCO)C(=O)N(CCCl)N=O)[C@@H](O)[C@H](O)[C@H]1O [Compound 12, 3-[2-(2-hydroxyethoxy)ethyl]-3-(n-butyl α-D-glucopyranose-6-yl)-1-(2-chloroethyl)-1-nitrosourea]",505 mg/kg,170 mg/kg,2.85 mg/kg,6/6,> 700%,59.6,,,,,0 to 10%,0%,0 to 10%,0%,,,
"CCC(C)O[C@H]1O[C@H](CN(C(=O)N(CCCl)N=O)C(C)CO)[C@@H](O)[C@H](O)[C@H]1O (stereo partly drawn) [Compound 20, 3-(2-hydroxy-1-methylethyl)-3-(sec-butyl α-D-glucopyranose-6-yl)-1-(2-chloroethyl)-1-nitrosourea]",560 mg/kg,170 mg/kg,3.92 mg/kg,4/6,> 430%,43.4,,,,,0 to 10%,0%,0 to 10%,0%,,,
"CCCCN(C[C@H]1O[C@H](OCCCOC)[C@H](O)[C@@H](O)[C@@H]1O)C(=O)N(CCCl)N=O [Compound 30, 3-n-butyl-3-(3-methoxy-n-propyl-α-D-glucopyranose-6-yl)-1-(2-chloroethyl)-1-nitrosourea]",450 mg/kg,150 mg/kg,2.61 mg/kg,6/6,> 700%,57.5,,,,,0 to 10%,0%,0 to 10%,0%,,,
COCCCO[C@H]1O[C@H](CN(CC(C)C)C(=O)N(CCCl)N=O)[C@@H](O)[C@H](O)[C@H]1O [Compound 31],505 mg/kg,170 mg/kg,2.65 mg/kg,6/6,> 700%,64.2,,,,,0 to 10%,0%,0 to 10%,0%,,,
"CCOCCN(C[C@H]1O[C@H](OC2CCCCC2)[C@H](O)[C@@H](O)[C@@H]1O)C(=O)N(CCCl)N=O [Compound 40, 3-(2-ethoxyethyl)-3-(cyclohexyl α-D-glucopyranose-6-yl)-1-(2-chloroethyl)-1-nitrosourea]",545 mg/kg,170 mg/kg,2.66 mg/kg,6/6,> 700%,63.9,,,,,0 to 10%,0%,0 to 10%,0%,,,
"COC(C)CN(C[C@H]1O[C@H](OC2CCCCC2)[C@H](O)[C@@H](O)[C@@H]1O)C(=O)N(CCCl)N=O (stereo partly drawn) [Compound 41, 3-(2-methoxy-n-propyl)-3-(cyclohexyl α-D-glucopyranose-6-yl)-1-(2-chloroethyl)-1-nitrosourea]",580 mg/kg,180 mg/kg,2.72 mg/kg,6/6,> 700%,66.2,,,,,0 to 10%,0%,0 to 10%,0%,,,
"O=NN(CCCl)C(=O)N(CC1CCCO1)C[C@H]1O[C@H](OC2CCCCC2)[C@H](O)[C@@H](O)[C@@H]1O (stereo partly drawn) [Compound 50, 3-tetrahydrofurfuryl-3-(cyclohexyl α-D-glucopyranose-6-yl)-1-(2-chloroethyl)-1-nitrosourea]",450 mg/kg,150 mg/kg,2.31 mg/kg,6/6,> 700%,64.9,,,,,0 to 10%,0%,0 to 10%,0%,,,
"CCC(C)O[C@H]1O[C@H](CN(CCC(C)(C)C)C(=O)N(CCCl)N=O)[C@@H](O)[C@H](O)[C@H]1O (stereo partly drawn) [Compound 190, 3-(3,3-dimethyl-n-butyl)-3-(sec-butyl α-D-glucopyranose-6-yl)-1-(2-chloroethyl)-1-nitrosourea]",470 mg/kg,150 mg/kg,3.12 mg/kg,6/6,> 700%,48.1,,,,,,,,,,,
"CCCC(OC)O[C@H]1O[C@H](CN(CCC(C)(C)C)C(=O)N(CCCl)N=O)[C@@H](O)[C@H](O)[C@H]1O (stereo partly drawn) [Compound 191, 3-(3,3-dimethyl-n-butyl)-3-(1-methoxy-n-butyl α-D-glucopyranose-6-yl)-1-(2-chloroethyl)-1-nitrosourea]",560 mg/kg,160 mg/kg,2.64 mg/kg,6/6,> 700%,60.6,,,,,,,,,,,
"CC(C)(C)CN(C[C@H]1O[C@H](OCC2CCCO2)[C@H](O)[C@@H](O)[C@@H]1O)C(=O)N(CCCl)N=O (stereo partly drawn) [Compound 194, 3-neopentyl-3-(tetrahydrofurfuryl α-D-glucopyranose-6-yl)-1-(2-chloroethyl)-1-nitrosourea]",,,,6/6,> 700%,62.6,,,,,,,,,560 mg/kg,160 mg/kg,2.56 mg/kg
"CCC(COC)O[C@H]1O[C@H](CN(CC(C)(C)C)C(=O)N(CCCl)N=O)[C@@H](O)[C@H](O)[C@H]1O (stereo partly drawn) [Compound 196, 3-neopentyl-3-(1-methoxy-sec-butyl α-D-glucopyranose-6-yl)-1-(2-chloroethyl)-1-nitrosourea]",,,,6/6,> 700%,63.4,,,,,,,,,560 mg/kg,160 mg/kg,2.52 mg/kg
"CC(C)CN(C[C@H]1O[C@@H](OCCN2CCOCC2)[C@H](O)[C@@H](O)[C@@H]1O)C(=O)N(CCCl)N=O [Compound 199, 3-isobutyl-3-(2-morpholinoethyl β-D-glucopyranose-6-yl)-1-(2-chloroethyl)-1-nitrosourea]",520 mg/kg,160 mg/kg,3.2 mg/kg,6/6,> 700%,50.0,,,,,,,,,,,
"CC(C)(C)N(C[C@H]1O[C@H](OC(c2ccccc2)C2CC2)[C@H](O)[C@@H](O)[C@@H]1O)C(=O)N(CCCl)N=O (stereo partly drawn) [Compound 201, 3-tert-butyl-3-(α-cyclopropylbenzyl α-D-glucopyranose-6-yl)-1-(2-chloroethyl)-1-nitrosourea]",460 mg/kg,150 mg/kg,4.78 mg/kg,6/6,> 700%,31.4,,,,,,,,,,,
"CO[C@H]1O[C@H](CO)[C@@H](O)[C@H](NC(=O)N(CCCl)N=O)[C@H]1O [KCNUM, 3-(methyl α-D-glucopyranose-3-yl)-1-(2-chloroethyl)-1-nitrosourea, reference compound]",130 mg/kg,25.4 mg/kg,1.38 mg/kg,4/6,> 425%,18.4,,,,,,,,,,,
